These results are taken from patent US10087178B2, “Substituted spiropyrido[1,2-a]pyrazine derivative and medicinal use thereof as HIV integrase inhibitor” (priority 2012, dated 2018).

In this assay the test system is HIV-1 NL4-3 strain. In words: Evaluation of antiviral activity: acute infection system of MT-4 cell with HIV-1 NL4-3 strain. It counts as cell-based. The following applies: Human immunodeficiency virus 1, NL43, MT4, 120 h.
Where [1] appears, read: antiviral activity, MT-4 cells infected with HIV-1 NL4-3 (MOI 0.05), 5 days culture, Cell Titer-Glo luminescence, read-out: EC50.
The mark [2] stands for this setting: MT-4 cells infected with HIV-1 NL4-3 strain (MOI 0.05), cultured 5 days, Cell Titer-Glo, read-out: antiviral activity (EC50).

The structures appear in SMILES notation. Counter-ions that a name gives are not always drawn. Like-named read-outs stand apart in the source and are kept apart here.

The EC50 is the concentration giving half of the maximal effect. For the molecule `CCO[C@H]1C[C@@]2(CN(C(C)C)C(=O)c3c(O)c(=O)c(C(=O)NCc4ccc(F)cc4F)cn32)C1` [Example S7, N-(2,4-difluorobenzyl)- trans-3-ethoxy-9′-hydroxy-2′-isopropyl-1′,8′-dioxo-1′,2′,3′,8′-tetrahydrospiro[cyclobutane-1,4′-pyrido[1,2-a]pyrazine]-7′-carboxamide hydrochloride], under setting [1], the EC50 came to 3.7 nM. With `COC[C@H]1C[C@@]12CN(C)C(=O)c1c(O)c(=O)c(C(=O)NCc3cc(OC)cc(Cl)c3F)cn12` [Example T21, (1S,2S)-N-(3-chloro-2-fluoro-5-methoxybenzyl)-9′-hydroxy-2-(methoxymethyl)-2′-methyl-1′,8′-dioxo-1′,2′,3′,8′-tetrahydrospiro[cyclopropane-1,4′-pyrido[1,2-a]pyrazine]-7′-carboxamide], under setting [2], the EC50 stood at 6.1 nM. On the same count and under the same terms, to `COC[C@H]1C[C@@]2(CN(C(C)C)C(=O)c3c(O)c(=O)c(C(=O)NCc4ccc(F)cc4F)cn32)C1` [Example S25, N-(2,4-difluorobenzyl)-9′-hydroxy-2′-isopropyl-trans-3-(methoxymethyl)-1′,8′-dioxo-1′,2′,3′,8′-tetrahydrospiro[cyclobutane-1,4′-pyrido[1,2-a]pyrazine]-7′-carboxamide hydrochloride] belongs 7 nM; to `CC(C)N1C(=O)c2c(O)c(=O)c(C(=O)NCc3ccc(F)cc3F)cn2C[C@]12C[C@@H](O)C2` [Example S54, N-(2,4-difluorobenzyl)- trans-3,9′-dihydroxy-2′-isopropyl-1′,8′-dioxo-1′,2′,4′,8′-tetrahydrospiro[cyclobutane-1,3′-pyrido[1,2-a]pyrazine]-7′-carboxamide hydrochloride], 27 nM; to `COC[C@H]1C[C@]2(CN(C)C(=O)c3c(OC(=O)C(C)C)c(=O)c(C(=O)NCc4cccc(Cl)c4F)cn32)C1` [Example S68, 7′-(3-chloro-2-fluorobenzylcarbamoyl)-cis-3-(methoxymethyl)-2′-methyl-1′,8′-dioxo-1′,2′,3′,8′-tetrahydrospiro[cyclobutane-1,4′-pyrido[1,2-a]pyrazin]-9′-yl isobutyrate], 0.7 nM. Regarding `CO[C@H]1C[C@@]2(CN(C)C(=O)c3c(O)c(=O)c(C(=O)NCc4ccc(F)cc4F)cn32)C1` [Example S13, N-(2,4-difluorobenzyl)-9′-hydroxy-trans-3-methoxy-2′-methyl-1′,8′-dioxo-1′,2′,3′,8′-tetrahydrospiro[1,2-a]pyrazine]-1,4′-pyrido[1,2-a]pyrazine]-7′-carboxamide hydrochloride], under setting [1], the half-maximal effective concentration (EC50) was 4.5 nM.

`COC[C@H]1C[C@]2(CN(C)C(=O)c3c(OC(=O)C(C)(C)C)c(=O)c(C(=O)NCc4cccc(Cl)c4F)cn32)C1` [Example S71, 7′-(3-chloro-2-fluorobenzylcarbamoyl)-cis-3-(methoxymethyl)-2′-methyl-1′,8′-dioxo-1′,2′,3′,8′-tetrahydrospiro[cyclobutane-1,4′-pyrido[1,2-a]pyrazin]-9′-yl pivalate]: the EC50 under setting [2] is 1.9 nM. Still for that read-out and setting: then `CCCO[C@H]1C[C@]2(CN(C)C(=O)c3c(O)c(=O)c(C(=O)NCc4cccc(Cl)c4F)cn32)C1` [Example S43, N-(3-chloro-2-fluorobenzyl)-9′-hydroxy-2′-methyl-1′-8′-dioxo-cis-3-propoxy-1′,2′,3′,8′-tetrahydrospiro[cyclobutane-1,4′-pyrido[1,2-a]pyrazine]-7′-carboxamide hydrochloride], with 4.7 nM.

Regarding `COC[C@H]1C[C@]2(CN(C)C(=O)c3c(O)c(=O)c(C(=O)NCc4cccc(Cl)c4F)cn32)C1` [Example 3, N-(3-chloro-2-fluorobenzyl)-9′-hydroxy-cis-3-(methoxymethyl)-2′-methyl-1′,8′-dioxo-1′,2′,3′,8′-tetrahydrospiro[cyclobutane-1,4′-pyrido[1,2-a]pyrazine]-7′-carboxamide hydrochloride], the concentration giving a half-maximal response (EC50) (antiviral activity, MT-4 cells infected with HIV-1 NL4-3 (MOI 0.05), 5 days culture, Cell Titer-Glo luminescence) worked out at 3.2 nM. `CC(C)N1C(=O)c2c(O)c(=O)c(C(=O)NCc3cccc(Cl)c3F)cn2C[C@@]12C[C@@H]2CO` [Example T47, (1S,2S)-N-(3-chloro-2-fluorobenzyl)-9′-hydroxy-2-(hydroxymethyl)-2′-isopropyl-1′,8′-dioxo-1′,2′,4′,8′-tetrahydrospiro[cyclopropane-1,3′-pyrido[1,2-a]pyrazine]-7′-carboxamide]: under setting [2], the EC50 was 4 nM. Regarding `CCN1C(=O)c2c(O)c(=O)c(C(=O)NCc3cccc(Cl)c3F)cn2C[C@]12C[C@H]2COC` [Example 18, (1R,2R)—N-(3-chloro-2-fluorobenzyl)-2′-ethyl-9′-hydroxy-2-(methoxymethyl)-1′,8′-dioxo-1′,2′,4′,8′-tetrahydrospiro[cyclopropane-1,3′-pyrido[1,2-a]pyrazine]-7′-carboxamide], the EC50 under setting [1] came to 2.6 nM. Take `CC(C)N1C[C@@]2(C[C@@H]2CO)n2cc(C(=O)NCc3cccc(Cl)c3F)c(=O)c(O)c2C1=O` [Example T11, (1S,2S)-N-(3-chloro-2-fluorobenzyl)-9′-hydroxy-2-(hydroxymethyl)-2′-isopropyl-1′,8′-dioxo-1′,2′,3′,8′-tetrahydrospiro[cyclopropane-1,4′-pyrido[1,2-a]pyrazine]-7′-carboxamide hydrochloride]: where the note is “read-out: antiviral activity (EC50), MT-4 cells infected with HIV-1 NL4-3 strain (MOI 0.05), cultured 5 days, Cell Titer-Glo”, the EC50 worked out at 6 nM.

In the case of `CCN1C(=O)c2c(O)c(=O)c(C(=O)NCc3cccc(Cl)c3F)cn2C[C@]12C[C@@H](COC)C2` [Example S59, N-(3-chloro-2-fluorobenzyl)-2′-ethyl-9′-hydroxy-trans-3-(methoxymethyl)-1′,8′-dioxo-1′,2′,4′,8′-tetrahydrospiro[cyclobutane-1,3′-pyrido[1,2-a]pyrazine]-7′-carboxamide hydrochloride], the EC50 under setting [2] was 4 nM. On the same count and under the same terms, to `CC(C)N1C(=O)c2c(O)c(=O)c(C(=O)NCc3ccc(F)cc3F)cn2C[C@@]12C[C@@H]2CO` [Example T42, (1S,2S)-N-(2,4-difluorobenzyl)-9′-hydroxy-2-(hydroxymethyl)-2′-isopropyl-1′,8′-dioxo-1′,2′,4′,8′-tetrahydrospiro[cyclopropane-1,3′-pyrido[1,2-a]pyrazine]-7′-carboxamide] belongs 3.7 nM. Turning to `CCOC[C@H]1C[C@]2(CN(C)C(=O)c3c(O)c(=O)c(C(=O)NCc4cccc(Cl)c4F)cn32)C1` [Example S39, N-(3-chloro-2-fluorobenzyl)- cis-3-(ethoxymethyl)-9′-hydroxy-2′-methyl-1′,8′-dioxo-1′,2′,3′,8′-tetrahydrospiro[cyclobutane-1,4′-pyrido[1,2-a]pyrazine]-7′-carboxamide hydrochloride], the concentration for a half-maximal effect (EC50) under setting [2] came to 3.5 nM. The same measure, in the same setting: to `CC(C)O[C@H]1C[C@@]2(CN(C)C(=O)c3c(O)c(=O)c(C(=O)NCc4cccc(Cl)c4F)cn32)C1` [Example S40, N-(3-chloro-2-fluorobenzyl)-9′-hydroxy-trans-3-isopropoxy-2′-methyl-1′-8′-dioxo-1′,2′,3′,8′-tetrahydrospiro[cyclobutane-1,4′-pyrido[1,2-a]pyrazine]-7′-carboxamide hydrochloride] belongs 2.3 nM.
